Assay results from patent US8252723B2, “Substituted 1-(3-pyridinyl)pyrazol-4-ylacetic acids, processes for their preparation and their use as herbicides and plant growth regulators” (Bayer CropScience AG, priority 2006, dated 2012).

Each molecule was assayed on summer wheat of the cultivar 'Triso' (assay: Plant growth regulation test: culm stabilization of crop plants). Conditions: application rate of 30 to 300 g of active substance per hectare, treated at stage BBCH 31, culm length measured after ears had formed.
Assay type: in vivo
Description: With stirring, the compound of the formula (I) in question was, in the form of a water-dispersible powder, together with a surfactant (customary adjuvant at an application rate of 1 l/ha), mixed with water such that a homogenous spray liquor was formed, and applied at an application rate of 300 l of water/ha (converted).
Seeds of summer wheat of the cultivar ‘Triso’ were sown at a depth of 1 cm in plant pots and cultivated outdoors until treatment.
The plants were treated on a laboratory track sprayer with spray liquors of the test substances at macrostage 3 after having reached about 10% of the maximum longitudinal growth typical for the cultivar (stage BBCH 31) and, after the treatment, returned outdoors.
After the ears had formed, the length of the culms were measured. The culm stabilization was evaluated as a percentage of the untreated control.
`COc1ccc(-c2c(CC(=O)O)c(C)nn2-c2cccnc2)cn1` [Example 1-62] was tested, and the “longitudinal growth (culm length) of summer wheat” value (“longitudinal growth (culm length)” below) was “effectively shortened”. `Cc1ccncc1-n1nc(C)c(CC(=O)O)c1-c1ccc(Cl)cc1` [Example 1-25] was tested, and the “longitudinal growth (culm length)” value was “effectively shortened”. For `COC(=O)Cc1c(C)nn(-c2cnccc2C)c1-c1cccc(Cl)c1Cl` [Example 2-131], the “longitudinal growth (culm length)” value was “effectively shortened”. `COC(=O)Cc1c(C)nn(-c2cccnc2)c1-c1ccc(Cl)c(C(F)(F)F)c1` [Example 2-47] was tested, and the “longitudinal growth (culm length)” value was “effectively shortened”. With `C=C(Cl)COC(=O)Cc1c(C)nn(-c2cccnc2)c1-c1cccs1` [Example 3-186] the “longitudinal growth (culm length)” value was “effectively shortened”. `Cc1nn(-c2cccnc2)c(-c2ccccc2)c1CC(=O)OCC1CCCC1` [Example 3-172] was tested, and the “longitudinal growth (culm length)” value was “effectively shortened”. In the case of `C=C(Cl)COC(=O)Cc1c(C)nn(-c2cccnc2)c1-c1cc(C)cs1` [Example 3-189], the “longitudinal growth (culm length)” value is reported as “effectively shortened”. `C=C(Cl)COC(=O)Cc1c(C)nn(-c2cccnc2)c1-c1ccc(C)s1` [Example 3-191] was tested, and the “longitudinal growth (culm length)” value was “effectively shortened”. In the case of `COC(=O)Cc1c(C)nn(-c2ccc(C(F)(F)F)nc2)c1-c1ccccc1` [Example 2-9], the “longitudinal growth (culm length)” value is reported as “effectively shortened”. With `COC(=O)Cc1c(C)nn(-c2cnccc2SC)c1-c1ccc(Cl)cc1` [Example 2-45] the “longitudinal growth (culm length)” value was “effectively shortened”. In the case of `Cc1nn(-c2cccnc2)c(-c2ccccc2)c1CC(=O)OCC1CCC1` [Example 3-168], the “longitudinal growth (culm length)” value is reported as “effectively shortened”. In the case of `CCCc1nn(-c2cccnc2)c(-c2ccc(Cl)cc2)c1CC(=O)OC` [Example 2-89], the “longitudinal growth (culm length)” value is reported as “effectively shortened”. For `Cc1nn(-c2cccnc2)c(-c2ccc(F)cc2)c1CC(=O)O` [Example 1-120], the “longitudinal growth (culm length)” value was “effectively shortened”. In the case of `COC(=O)Cc1c(C)nn(-c2ccc(Cl)nc2)c1-c1ccccc1` [Example 2-7], the “longitudinal growth (culm length)” value is reported as “effectively shortened”. For `COC(=O)Cc1c(C)nn(-c2cncc(C)c2)c1-c1ccccc1` [Example 2-50], the “longitudinal growth (culm length)” value was “effectively shortened”. `Cc1nn(-c2cccnc2)c(-c2ccc(Cl)s2)c1CC(=O)O` [Example 1-60] was tested, and the “longitudinal growth (culm length)” value was “effectively shortened”. For `COC(=O)Cc1c(C)nn(-c2cnccc2C)c1-c1ccc(F)cc1` [Example 2-37], the “longitudinal growth (culm length)” value was “effectively shortened”. `COC(=O)Cc1c(C)nn(-c2cccnc2)c1-c1ccc(C(F)(F)F)cn1` [Example 2-144] was tested, and the “longitudinal growth (culm length)” value was “effectively shortened”. For `Cc1nn(-c2cnccc2[S+](C)[O-])c(-c2ccccc2)c1CC(=O)O` (stereo not drawn) [Example 1-71], the “longitudinal growth (culm length)” value was “effectively shortened”. With `Cc1nn(-c2cccnc2)c(-c2ccccc2)c1CC(=O)OCC1(C)CC1` [Example 3-105] the “longitudinal growth (culm length)” value was “effectively shortened”. With `COC(=O)Cc1c(C)nn(-c2cnccc2Cl)c1-c1ccccc1` [Example 2-30] the “longitudinal growth (culm length)” value was “effectively shortened”. For `Cc1nn(-c2cccnc2)c(-c2cccnc2)c1CC(=O)O` [Example 1-125], the “longitudinal growth (culm length)” value was “effectively shortened”. With `C#CCOC(=O)Cc1c(C)nn(-c2cccnc2)c1-c1ccc(OC)nc1` [Example 3-63] the “longitudinal growth (culm length)” value was “effectively shortened”. `Cc1csc(-c2c(CC(=O)O)c(C)nn2-c2cccnc2)c1` [Example 1-59] was tested, and the “longitudinal growth (culm length)” value was “effectively shortened”. In the case of `COC(=O)Cc1c(C)nn(-c2cccnc2)c1-c1ccccn1` [Example 2-109], the “longitudinal growth (culm length)” value is reported as “effectively shortened”. With `COc1ccc(-c2c(CC(=O)OCC3CC3)c(C)nn2-c2cccnc2)cn1` [Example 3-86] the “longitudinal growth (culm length)” value was “effectively shortened”. For `COC(=O)Cc1c(C)nn(-c2cncc(C)c2)c1-c1ccc(Cl)cc1` [Example 2-51], the “longitudinal growth (culm length)” value was “effectively shortened”.
